Measurements published in paper PMC2653597 (Journal of chromatography. A, 2008).

Tests used:
[1] = molecular target: human recombinant BChE (rBChE) in solution (Homo sapiens, UniProt P06276); assay: in solution stopped time assay for carbamoylation constants; format: biochemical; conditions: enzyme in solution, classical Ellman's assay
[2] = molecular target: immobilized human recombinant butyrylcholinesterase (rBChE) (Homo sapiens, UniProt P06276); assay: rBChE-IMER on-line carbamoylation/decarbamoylation kinetics; format: biochemical; conditions: immobilized enzyme, 30 °C, flow rate 1.0 mL/min
immobilized human recombinant butyrylcholinesterase (rBChE), sequence (P06276 29-602): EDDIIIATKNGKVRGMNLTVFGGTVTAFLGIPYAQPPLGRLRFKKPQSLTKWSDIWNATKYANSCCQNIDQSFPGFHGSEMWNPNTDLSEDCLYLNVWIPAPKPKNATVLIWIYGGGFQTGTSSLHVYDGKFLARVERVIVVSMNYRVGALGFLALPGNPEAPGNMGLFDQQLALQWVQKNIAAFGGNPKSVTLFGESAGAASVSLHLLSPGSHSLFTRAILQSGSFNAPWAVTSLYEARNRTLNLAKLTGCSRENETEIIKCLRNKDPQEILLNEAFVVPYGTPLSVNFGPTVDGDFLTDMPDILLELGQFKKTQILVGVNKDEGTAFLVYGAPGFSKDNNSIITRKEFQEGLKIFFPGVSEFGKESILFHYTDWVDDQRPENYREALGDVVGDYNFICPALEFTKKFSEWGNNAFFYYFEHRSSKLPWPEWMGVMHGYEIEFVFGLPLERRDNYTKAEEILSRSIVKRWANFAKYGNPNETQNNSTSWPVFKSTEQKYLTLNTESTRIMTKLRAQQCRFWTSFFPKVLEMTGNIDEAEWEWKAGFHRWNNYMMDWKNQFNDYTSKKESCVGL

human recombinant BChE (rBChE) in solution, sequence (P06276 29-602): as above

For `CC(C)c1ccc(NC(=O)Oc2ccc3c(c2)[C@]2(C)CCN[C@@H]2N3)cc1` [(-)-Bisnorcymserine], the “carbamoylation constant k2, rBChE in solution” value [1] was 0.573 ± 0.068 min⁻¹ and the “carbamoylation constant k2, rBChE-IMER” value [2] was 0.081 ± 0.004 min⁻¹.
With `CC(C)Cc1ccc(NC(=O)Oc2ccc3c(c2)[C@]2(C)CCN[C@@H]2N3)cc1` [(-)-Isobutylbisnorcymserine] the “carbamoylation constant k2, rBChE in solution” value [1] was 0.634 ± 0.022 min⁻¹ and the “carbamoylation constant k2, rBChE-IMER” value [2] was 0.049 ± 0.002 min⁻¹.
With `CN1CC[C@@]2(C)c3cc(OC(=O)Nc4ccccc4)ccc3N(C)[C@@H]12` [(-)-Phenserine, 3aS-(-)-phenylcarbamoyleseroline] the “carbamoylation constant k2, rBChE in solution” value [1] was 3.094 ± 0.536 min⁻¹ and the “carbamoylation constant k2, rBChE-IMER” value [2] was 0.486 ± 0.037 min⁻¹.
`CNC(=O)Oc1ccc2c(c1)[C@]1(C)CCN(C)[C@@H]1N2C` [(-)-Physostigmine, (-)-physostigmine, reference compound] was tested, and the “carbamoylation constant k2, rBChE in solution” value [1] was 0.479 ± 0.070 min⁻¹ and the “carbamoylation constant k2, rBChE-IMER” value [2] was 0.161 ± 0.025 min⁻¹.
